# Source: patent publication US9120774B2 (University of Kansas, priority 2009, dated 2015)
# Key:
# [1] = test system: primary cortical neurons; test: Toxicity of drug alone in neuronal cells (Live-Dead assay); type: cell-based
# Excerpt: More specifically, primary cortical neurons were recovered from embryonic day 18 rat brains as described previously (Michaelis et al., Immunological Localization And Kinetic Characterization Of A Na+/Ca2+Exchanger In Neuronal And Nonneuronal Cells, Brain Res. 661 104-116 (1994)). Briefly, about 10 to 16 brains were removed from fetuses delivered by cesarean section, and the cortices dissected out. The neurons were isolated and suspended in DMEM/F12 supplemented with 10% FBS and plated on sterile dishes or cover slips coated with 10 μg/ml poly-D-lysine and 5 μg/ml mouse laminin. After 24 hours, the serum-containing medium was removed, and neurons were maintained in Neurobasal medium (Gibco) with 2% B-27 supplements (Gibco). Cells were maintained in culture at 37° C. in 5% CO2 and 97% humidity for 7 to 8 eight days in vitro (DIV) before use. […] Stock solutions of Aβ were prepared in sterile water at a concentration of 1.3 mM and stored at −20° C. Aliquots of the stock solutions were diluted to 1 mM in sterile 50 mM Tris-HCl, pH 7.4, and incubated at 37° C. for 24 hours to promote oligomerization of the peptides prior to treatment of the neurons. The effects of KU-1/A4, GA, Aβ, or the indicated combinations on neuronal viability were determined by monitoring cell survival using the Live-Dead assay as previously described. […] Digital images from 6 fields per dish were captured, and the number of viable (green) and dead (red) cells counted. All experiments were conducted with duplicate dishes from at least two neuronal preparations for each treatment, with about 1,000 cells analyzed/treatment condition. The data are expressed as the fraction of viable cells calculated from the total number of neurons counted under each treatment condition. The significance of differences between cultures exposed to various treatment conditions was determined using Student's t-test.
# [2] = test system: Hsp90-dependent client protein phospho-AKT in SKBr3 breast cancer cells; test: Degradation of phospho-AKT, Western blot in SKBr3 cells; type: cell-based; conditions: 100 μM
# Method: Total protein concentration of each lysate was determined and equal amounts of protein were run in each lane of the gels. For the graphs shown in FIG. 1, the O.D.'s (optical density) of the Western bands for phospho-AKT were measured, as were the O.D.'s for actin probed as controls on the same blots. To obtain the graphed values, all specific O.D.'s (for Hsp90 clients) were normalized to the respective actin O.D.
# Inhibition of Hsp90 results in the degradation of Hsp90-dependent clients via ubiquitination of the unfolded client followed by proteasome-mediated hydrolysis. […] Geldanamycin (GDA, 0.5 μM) was used as a positive control for Hsp90 inhibition.
# [3] = test system: Hsp70 in primary cortical neurons; test: Hsp70 up-regulation in neuronal cells (immunoblot); type: cell-based, rat
# Method: Inhibition of Hsp90 induces overexpression of both Hsp90 and Hsp70 through dissociation of Hsp90-HSF-1 complexes and subsequent translocation of HSF-1 to the nucleus. […] Thus, in this example, an immunoblot analysis of neuronal cells was performed for Hsp70.
# Primary cortical neurons were prepared as described herein. Cells were incubated (37° C. in 5% CO2) with the indicated concentrations of GA or KU-1/A4 for 24 or 48 hours. Cells were washed three times with phosphate buffered saline (PBS), followed by addition of a cell lysis buffer (50 mM Tris-HCL, 150 mM NaCl, 5 mM EDTA, 5 mM EGTA, 1% NP40, 10% Glycerol, 1 mM Na3VO4, 10 mM sodium molybdate, 40 mM NaF, and 10 ul/ml of Calbiochem protease inhibitor cocktail III). Cells were collected by scraping the dishes and aspirating all contents. […] The membranes were probed with the indicated primary HSP70 antibody (1:500, Upstate Biotechnology) and immunoreactive proteins detected using the Lumiglo Western Blot Protein Detector Kit (KPL). The immunoblots were scanned using a Kodak Image Station 2000R to determine the pixel density of the bands and imported into Photoshop and analyzed as described in Zaidi et al., Oxidative inactivation of purified plasma membrane Ca2+-ATPase by hydrogen peroxide and protection by calmodulin, Biochem. 42 12001-12010 (2003). All blots were re-probed with antibodies to β-actin I-19R (Santa Cruz) as a loading control and the data are presented as the ratio of Hsp70 to actin in each lane. Cells from at least three separate cultures for each treatment condition were examined, and the significance of differences in the immunoreactivities of the bands observed under the various treatment conditions was assessed by Student's t-test for unpaired samples.
# [4] = target: P-glycoprotein (P-gp) (Bos taurus, UniProt A0A3Q1MB23); test: Rhodamine 123 uptake assay in BMECs
# Method: Taxol (10 μM) was used as a positive p-glycoprotein substrate.
# [5] = test system: SkBr3 (Her2 overexpressing breast cancer cells); test: Anti-proliferation activity against SkBr3 cells (MTS/PMS); type: cell-based; conditions: up to 100 μM
# Outline: (§1)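 Cells seeded at 2000/well, attached overnight, then exposed to compound at varying concentrations (1% DMSO final) for 72 hours at 37° C. Viable cells read by MTS/PMS, normalised to 1% DMSO as 100% proliferation. IC50 from separate triplicate experiments.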
# [6] = test system: MCF-7 (estrogen receptor positive breast cancer cells); test: Anti-proliferation activity against MCF-7 cells (MTS/PMS); type: cell-based; conditions: up to 100 μM
# Outline: as §1
# Sequence of P-glycoprotein (P-gp) (A0A3Q1MB23 1-1267): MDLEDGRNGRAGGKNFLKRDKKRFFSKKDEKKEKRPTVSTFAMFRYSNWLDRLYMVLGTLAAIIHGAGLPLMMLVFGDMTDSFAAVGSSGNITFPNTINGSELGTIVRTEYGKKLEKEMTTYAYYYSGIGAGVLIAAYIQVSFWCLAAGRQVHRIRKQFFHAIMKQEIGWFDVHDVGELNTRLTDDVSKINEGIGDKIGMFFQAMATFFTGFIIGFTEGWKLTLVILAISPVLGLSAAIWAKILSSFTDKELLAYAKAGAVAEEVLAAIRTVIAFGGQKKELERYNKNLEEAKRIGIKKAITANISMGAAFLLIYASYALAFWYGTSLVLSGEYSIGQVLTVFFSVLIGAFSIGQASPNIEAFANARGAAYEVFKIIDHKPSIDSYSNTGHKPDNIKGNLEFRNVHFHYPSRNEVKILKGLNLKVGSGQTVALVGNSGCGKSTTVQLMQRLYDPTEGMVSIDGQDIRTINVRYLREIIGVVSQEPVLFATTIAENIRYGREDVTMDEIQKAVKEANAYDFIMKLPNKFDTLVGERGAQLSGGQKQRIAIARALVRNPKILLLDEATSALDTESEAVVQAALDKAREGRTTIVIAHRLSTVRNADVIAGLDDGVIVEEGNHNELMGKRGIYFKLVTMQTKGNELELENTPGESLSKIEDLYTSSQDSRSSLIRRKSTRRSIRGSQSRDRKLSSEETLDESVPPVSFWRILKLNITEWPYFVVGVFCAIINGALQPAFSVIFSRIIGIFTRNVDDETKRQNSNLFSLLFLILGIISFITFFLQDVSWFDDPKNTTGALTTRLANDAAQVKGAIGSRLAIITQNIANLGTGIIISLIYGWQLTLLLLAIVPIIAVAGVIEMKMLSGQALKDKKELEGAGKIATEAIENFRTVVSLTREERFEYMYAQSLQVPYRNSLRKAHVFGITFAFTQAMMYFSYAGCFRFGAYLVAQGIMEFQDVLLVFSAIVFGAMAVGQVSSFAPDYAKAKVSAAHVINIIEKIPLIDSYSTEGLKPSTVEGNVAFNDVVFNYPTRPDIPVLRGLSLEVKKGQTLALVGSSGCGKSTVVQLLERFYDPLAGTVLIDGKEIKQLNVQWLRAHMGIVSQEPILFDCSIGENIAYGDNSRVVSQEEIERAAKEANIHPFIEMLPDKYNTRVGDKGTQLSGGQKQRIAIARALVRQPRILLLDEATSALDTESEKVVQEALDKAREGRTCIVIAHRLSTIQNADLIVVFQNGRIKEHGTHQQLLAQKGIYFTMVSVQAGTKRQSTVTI
compound,measurement,setting,value
"CO[C@@H]1[C@@H](O)[C@@H](O)[C@H](Oc2ccc3cc(NC(C)=O)c(=O)oc3c2)OC1(C)C [KU-1/A4, N-(7-((2R,3R,4S,5R)-3,4-dihydroxy-5-methoxy-6,6-dimethyl-tetrahydro-2H-pyran-2-yloxy)-2-oxo-2H-chromen-3-yl)acetamide]",neurotoxicity of compound alone,[1]; 100 nM (20× the EC50),did not result in any observed neurotoxicity
same,toxic effects in neuronal cells,"[1]; 10 μM, 72 hours",no toxic effects
same,toxicity of the drug alone to neurons,"[1]; primary neurons, drug alone",no toxicity
same,degradation of phosphorylated AKT (Hsp90 inhibition),[2],the most potent novobiocin analogues identified
same,Hsp70 levels (ratio of Hsp70 to actin),"[3]; 0.2 μM, 48 hours",significantly increased Hsp70 levels
same,lowest concentration leading to increases in Hsp70 levels,"[3]; 48 hours, compared to DMSO controls",1 nM
same,Hsp70 levels,[3]; higher concentrations (1 and 10 μM),did not significantly increase Hsp70 levels
same,P-gp substrate,[4],not a substrate for P-gp
same,rhodamine 123 uptake,"[4]; rhodamine 123 5 μM, Taxol 10 μM, KU-1/A4 up to 50 μM",no effect on uptake
same,anti-proliferative effects SkBr3,[5],no anti-proliferative effects
same,anti-proliferative effects MCF-7,[6],no anti-proliferative effects
